Assay [1] relates to stage 1 enteric ganglioids. The following applies: MEA.
For assay [2], the system named is stage 2 enteric ganglioid. As to conditions: flow cytometry, stage 2 enteric ganglioids. For orientation: In flow cytometry, cells or beads pass a laser one at a time.
For the next assay, the system named is mouse colon. The assay can be described thus: Ex vivo colonic motility assay (organ bath, GIMM). As to conditions: for CMMC intervals relative to the untreated condition: first experiment, five consecutive 10-min acquisitions, interval at 75th percentile. How it is done:
Preparation of solutions: Krebs buffer [NaCl (117 mM), KCl (4.7 mM), NaH2PO4 (1.2 mM), MgCl2 (1.5 mM), CaCl2·2H2O (2.5 mM), NaHCO3 (25 mM), Glucose (11 mM), pH 7.4] was placed in a 37° C. water bath and aerated with 95% 02 and 5% CO2 (carbogen) gas mixture for at least 30 minutes prior to experiment onset. “Drug” treatment solutions were freshly prepared by adding the drug compound into Krebs buffer before starting data acquisition. The solution with NOS1 inhibitor was prepared by adding N omega-nitro-L-arginine methyl ester hydrochloride (L-NAME) to the drug solutions making “Drug+L-NAME”.
Tissue dissection: For each experimental replicate, a pair of 8-week-old wild type C57BL6 mice (male) were placed in a sealed chamber and euthanized using CO2 asphyxiation followed by cervical dislocation. The lower GI tract (cecum and colon) was removed and immediately transferred to 37° C. carbogenated Krebs buffer, with the fecal matter still inside. Adipose tissue and mesentery were removed before placing the colons in the organ bath reservoir of gastrointestinal motility monitor (GIMM) apparatus.
Experimental set-up and procedure: GIMM was designed based on a previously reported model (Swaminathan et al., 2016). The organ reservoir of GIMM has two-chambers for recording two specimens simultaneously. It is connected to working solutions kept at 37° C. via a 4-channel peristaltic pump (WPI, PERIPRO-4LS). Lower GI tract was harvested and transferred to the organ bath with the Krebs buffer was flowing through. The cecum was pinned down at the proximal tip and the distal end of the colon was pinned through the serosa/mesentery. Five 10-min (for the first experiments) or sequential 6-min (for the sequential drug treatment in the presence and absence of L-NAME) videos were recorded using the IC capture software (Imaging Source) with a high resolution monochromatic firewire industrial camera (Imaging Source®, DMK41AF02) connected to a ⅔″ 16 mm f/1.4 C-Mount Fixed Focal Lens (Fujinon HF16SA1). While tissue in the control chamber was only exposed to Krebs solution, the order of solutions in the experimental chamber was: Krebs, drug compound, Krebs (6 min each), L-NAME (2 min), L-NAME in the presence of a drug compound (6 min) and Krebs (6 min). The chambers were cleaned after each acquisition.
Data and statistical analysis: VolumetryG9a was used to generate the spatiotemporal map (STM) of each acquisition (Spear et al., 2018). Slow waves (SW) and colonic migrating motor complexes (CMMC) data were generated from STMs. Statistical analyses were performed using PRISM.
For selected compounds, a more comprehensive and integrated target analysis was performed by combining reported experimental data (Binding DB) and computational methods (SEA, Carlsbad, Dinies, Swisstarget, Superdrug, Pubchem Bioassays, FIG. 2G). The effects of these compounds was tested on colonic motility in organ bath assays (FIG. 2H). In these assays, resected segments of mouse colon were maintained in a physiologic buffer to study motility patterns using video recording. In the first experiment the effect of all selected drug candidates was tested on mouse colonic motility, ex vivo (FIG. 2I). In each experiment, an untreated control and a drug-treated colon sample were tested side by side during five consecutive 10-min acquisitions. For each acquisition, instead of analyzing fecal outputs, which are generally variable, more sophisticated contraction analysis was performed by generating spatiotemporal maps from video data based on the changes in the colonic diameter over time, and used to calculate the rate of colonic migrating motor complexes (CMMC) and slow waves (SW).

A further assay concerns EGFRs. As to conditions: cited from earlier work.
Assay [3] relates to hESC-derived 2D ENS cultures (NOS1+ cells). The assay can be described thus: High-throughput screening to identify compounds that enrich NO neurons. Format: cell-based, human. Details: dose or concentration left out as unconfirmed. As to conditions: 1694 inhibitors, treated D15-D20, read at day 40. Here is the method:
Day 15 H9 hESC-derived enteric crestospheres were dissociated into single cells (accutase, Stemcell Technologies, 07920, 30 min, 37° C.), resuspended in ENC medium and were transferred into 384-well plates. Plates were incubated for 2 hours for cells to attach. Using a pin tool, drugs from a library of 1694 inhibitors (SelleckChem, USA) were added to wells at the final concentration of […] and plates were incubated with drugs until D20, when media were changed to ENC with no drugs. At day 40, cells were fixed, stained for NOS1 and imaged using InCellAnalyzer 2000 (GE Healthcare, USA). Hits were selected based on the fold increase of the percentage of NOS1^+ cells relative to the wells treated with vehicle (DMSO).
(§1) To identify compounds that induce NO neuron differentiation, enteric crestospheres were treated with 1694 compounds in the Selleck inhibitor Library™ and 12 hit compounds that increased the proportion of NOS1^+ neurons by at least eight folds were identified (FIG. 7A and FIG. 8A-B). […] After clustering the predicted protein targets, common patterns emerged for a subset of compounds.

The next assay relates to VEGFRs. The following applies: cited from earlier work.
In assay [4] the test system is stage 1 enteric ganglioids. The assay can be described thus: snRNA-seq comparison of PP121 treated vs control enteric ganglioids. The following applies: snRNA-seq sub-clustering. In kind it is cell-based, human. Here is the method: All tubes and pipet tips used for cell harvesting were pre-treated with 1% BSA in 1×PBS. Cells were dissociated in Accutase (Stem Cell) at 37° C., in 10 min increments, with end-to-end rotation, until single cell suspension was obtained. The cells were washed in Cell Staining Buffer (Biolegend) and stained with TotalSeq HTO antibodies for 30 min on ice. The cells were washed twice in Cell Staining Buffer and filtered through a 40 μm pipette tip strainer (BelArt). […] The libraries were sequenced on Illumina NovaSeq sequencer in the Center for Advanced Technologies (UCSF). The cell feature matrices were extracted using kallisto/bustools, and demultiplexed using seurat.
To compare the gene expression of control and PP121 treated cell types, neuronal subtypes and NO neuron subtypes, a subset dataset of each cell type and subtype annotation was first created. For each subset, the non-imputed average expression of all genes was then calculated for the control and PP121 treated cells using the “AverageExpression” function and natural log transformed for plotting. R2 values comparing the control and PP121 natural log expression values were calculated from linear modeling using the “y˜x” formula.
To compare PP121 treated and untreated stage 1 enteric ganglioids in single cell resolution, snRNA-seq was performed, and both datasets combined.

The test system of assay [5] is stage 1 NOS1::GFP enteric ganglioids. The assay can be described thus: NO neuron induction in stage 1 enteric ganglioids (flow cytometry). Format: cell-based, human. As to conditions: for NO neuron induction / NO neuron proportions in response to RTK ligands: stage 1 enteric ganglioids. Here is the method:
List of antibodies and working dilutions is not shown.
as §1
To determine the mechanism by which PP121 induced NO neuron enrichment in ganglioids, a combination of pharmacological and genetic approaches was used. […] The crestosphere snRNA-seq analysis confirmed the expression of PDGFRA, PDGFRB, ERBB2, and ERBB3 while the mRNA for VEGFRs were not detectable (FIG. 7L). The induction efficiency of NO neurons was evaluated in response to PDGF (PDGFR agonist), sunitinib (PDGFR and VEGFR antagonist), NRG1 (ERBBs agonist), and sapitinib (ERBBs antagonist) (FIG. 7M). […] To genetically confirm the role of PDGFR signaling in NO neuron induction, CRISPR-Cas9 was used to knock-out PDGFRA and PDGFRB in the enteric crestospheres and the percentage of NO neurons in stage 1 ganglioids was analyzed. NO neurons were […] in both PDGFRA and PDGFRB knock-out cultures further confirming the PP121 mechanism of action (FIG. 7O-P).

For another assay, the system named is PDGFRs. As to conditions: cited from earlier work.
The mark [6] stands for this setting: 6-min treatment, all five replicates.

As for `CNC[C@H](O)c1ccc(O)c(O)c1` [Epinephrine, epinephrine], in assay [1], the “electrical firing of ganglioid neurons” value is on record as “increased electrical firing”. Besides, the “neuronal cFOS expression” value in [2] is recorded as “induced neuronal cFOS expression”.
`Cc1cccc(C#Cc2ccccc2)n1` [MPEP]: the “CMMC intervals relative to the untreated condition” value in the assay on mouse colon is reported as “promising effects on lowering CMMC intervals”.
As for `Nc1ncnc2c1c(-c1cnc3[nH]ccc3c1)nn2C1CCCC1` [PP121], in the assay on EGFRs, the “inhibitory activity on EGFRs” value is reported as “known inhibitory activity”. For the same molecule, the “fold increase of the percentage of NOS1+ cells relative to vehicle (DMSO)” value in [3] is listed as “highest % NOS1^+ fold increase in this subset of compounds”. Further, the “inhibitory activity on VEGFRs” value in the assay with VEGFRs is recorded as “known inhibitory activity”. Further, the “abundance of neuronal subtypes” value in assay [4] is “enriched cultures for neuronal subtypes EN D and H”. Moreover, the “NO neuron induction efficiency by treatment window” value in assay [5] (2 μM PP121, five days at various time points, GFP signal) was “highest induction efficiency for cells treated during day 15-20”. Also, the “NO neuron induction efficiency, concentration dependence” value in assay [5] (different PP121 concentrations at D15-D20, flow cytometry) was “dose-dependent effect”. For the same molecule, the “inhibitory activity on PDGFRs” value in the assay with PDGFRs is on record as “known inhibitory activity”.
As to `O=C1CCc2ccc(OCCCCN3CCN(c4cccc(Cl)c4Cl)CC3)cc2N1` [aripiprazole], in the assay on mouse colon, the “CMMC intervals relative to the untreated condition” value is recorded as “promising effects on lowering CMMC intervals”.
On to `Cc1cccc([C@H](C)c2cnc[nH]2)c1C` [dexmedetomidine], for which, in the assay with mouse colon (setting [6]), the “average duration of LCEs” value is “increasing trend” and the “total number of longitudinal contractile events (LCEs)” value is listed as “decrease”. Also, the “effects on LCEs after the drug removal” value in the assay on mouse colon (Krebs washout) is recorded as “reversed”. The “effects on LCEs with L-NAME co-treatment” value in the assay with mouse colon (L-NAME co-treatment) is reported as “blocked”. The “effect on CMMC intervals with L-NAME” value in the assay on mouse colon (dexmedetomidine+L-NAME simultaneously) was “absent”. Besides, the “CMMC intervals relative to the untreated condition” value with mouse colon is reported as “promising effects on lowering CMMC intervals”. Also, the CMMC intervals result in the assay with mouse colon (sequential 6-min treatments, five sample pairs, 1 μM, drug alone) was “decreased CMMC intervals in four out of five colon samples”.
As to `O=C1CCC[C@@H]2[C@H]3CCCN4CCC[C@@H](CN12)[C@@H]34` [matrine], in the assay with mouse colon, the “CMMC intervals relative to the untreated condition” value is given as “promising effects on lowering CMMC intervals”.
On to `CNC(=O)CN1CCC(Oc2cc3c(Nc4cccc(Cl)c4F)ncnc3cc2OC)CC1` [sapitinib], for which the “NO neuron induction / NO neuron proportions in response to RTK ligands” value in [5] was “no significant effect”.
For the molecule PDGF, the “NO neuron induction / NO neuron proportions in response to RTK ligands” value in assay [5] is reported as “lower”.

The values above are taken from US20250090501A1, “METHODS OF TREATING GUT MOTILITY DISORDERS” (THE REGENTS OF THE UNIVERSITY OF CALIFORNIA, priority 2022, published 2025).
